ChEMBL document CHEMBL1126161, “3,4-Dihydroquinolin-2(1H)-ones as combined inhibitors of thromboxane A2 synthase and cAMP phosphodiesterase” (J Med Chem, 1992)

Tests used:
Homo sapiens [1] = species on record: Homo sapiens; test: Inhibition of [14C]arachidonic acid induced platelet aggregation at 500 uM (Control TXB2 = 14.9+/-2.5); assay type: functional
Rattus norvegicus [2] = test: (§1) Antihypertensive activity in conscious spontaneously hypertensive rat (SHR), percent change in Systolic blood pressure (SBP) at 0.3 mg/kg peroral dose after 4 hr; assay type: functional; conditions: route oral
Rattus norvegicus [3] = test: as §1; assay type: functional; conditions: route oral; remark: listed apart in the source
Homo sapiens [4] = species on record: Homo sapiens; test: Inhibition of [14C]arachidonic acid induced platelet aggregation at 50 uM (Control TXB2 = 14.9+/-2.5); assay type: functional
Homo sapiens [5] = species on record: Homo sapiens; test: Ratio of IC50(w/oPAM)/IC50(w/PAM); assay type: functional
Rattus norvegicus [6] = test: Antihypertensive activity in conscious spontaneously hypertensive rat (SHR), percent change in Systolic blood pressure (SBP) at 0.3 mg/kg peroral dose after 12 hr; assay type: functional; conditions: route oral
Rattus norvegicus [7] = test: Antihypertensive activity in conscious spontaneously hypertensive rat (SHR), percent change in heart rate (beats/min) after 8 hr at 3 mg/kg peroral dose; assay type: functional; conditions: route oral
Rattus norvegicus [8] = test: Antihypertensive activity in conscious spontaneously hypertensive rat (SHR), percent change in heart rate (beats/min) after 4 hr at 0.3 mg/kg peroral dose; assay type: functional; conditions: route oral
Homo sapiens [9] = species on record: Homo sapiens; test: Ratio of IC50(PDE)/IC50(TXA2); assay type: functional
Phosphodiesterase 3 = Phosphodiesterase 3 (Homo sapiens, UniProt Q14432+Q13370); test: Inhibition of human blood platelet c-AMP phosphodiesterase
Rattus norvegicus [10] = test: Antihypertensive activity in conscious spontaneously hypertensive rat (SHR), percent change in Systolic blood pressure (SBP) at 0.3 mg/kg peroral dose after 8 hr; assay type: functional; conditions: route oral
Rattus norvegicus [11] = test: Antihypertensive activity in conscious spontaneously hypertensive rat (SHR), percent change in heart rate (beats/min) after 1 hr at 3 mg/kg peroral dose; assay type: functional; conditions: route oral
Homo sapiens [12] = species on record: Homo sapiens; test: Inhibition of [14C]arachidonic acid induced platelet aggregation at 500 uM (Control 6-keto-PGF1-alpha = 1.45+/-0.6); assay type: functional
Mus musculus [13] = test: Time course of protection against mortality in a pulmonary thromboembolism model in mice after -3 hr at 10 mg/kg; assay type: functional
Mus musculus [14] = test: Time course of protection against mortality in a pulmonary thromboembolism model in mice after -5 hr at 10 mg/kg; assay type: functional
Homo sapiens [15] = species on record: Homo sapiens; test: In vitro inhibition of ADP-induced aggregation of human PRP in the presence of pig aortal microsomes (PAM).; assay type: functional
Rattus norvegicus [16] = test: Antihypertensive activity in conscious spontaneously hypertensive rat (SHR), percent change in heart rate (beats/min) after 12 hr at 3 mg/kg peroral dose; assay type: functional; conditions: route oral
Rattus norvegicus [17] = test: Antihypertensive activity in conscious spontaneously hypertensive rat (SHR), percent change in heart rate (beats/min) after 8 hr at 1 mg/kg peroral dose; assay type: functional; conditions: route oral
Rattus norvegicus [18] = test: Antihypertensive activity in conscious spontaneously hypertensive rat (SHR), percent change in Systolic blood pressure (SBP) at 1 mg/kg peroral dose after 12 hr; assay type: functional; conditions: route oral
Rattus norvegicus [19] = test: Antihypertensive activity in conscious spontaneously hypertensive rat (SHR), percent change in Systolic blood pressure (SBP) at 3 mg/kg peroral dose after 2 hr; assay type: functional; conditions: route oral
Rattus norvegicus [20] = test: Antihypertensive activity in conscious spontaneously hypertensive rat (SHR), percent change in Systolic blood pressure (SBP) at 3 mg/kg peroral dose after 12 hr; assay type: functional; conditions: route oral
Rattus norvegicus [21] = test: Antihypertensive activity in conscious spontaneously hypertensive rat (SHR), percent change in heart rate (beats/min) after 12 hr at 10 mg/kg peroral dose; assay type: functional; conditions: route oral
Mus musculus [22] = test: Protection against mortality in pulmonary thromboembolism model in mice at 10 mg/kg; assay type: functional
Mus musculus [23] = test: Time course of protection against mortality in a pulmonary thromboembolism model in mice after -1 hr at 10 mg/kg; assay type: functional
Mus musculus [24] = test: Protection against mortality in pulmonary thromboembolism model in mice at 9 mg/kg; assay type: functional
Rattus norvegicus [25] = test: Antihypertensive activity in conscious spontaneously hypertensive rat (SHR), percent change in heart rate (beats/min) after 4 hr at 1 mg/kg peroral dose; assay type: functional; conditions: route oral
Rattus norvegicus [26] = test: Antihypertensive activity in conscious spontaneously hypertensive rat (SHR), percent change in heart rate (beats/min) after 1 hr at 10 mg/kg peroral dose; assay type: functional; conditions: route oral

`O=C1CCc2cc(/C=C/n3ccnc3)ccc2N1` was tested, and the inhibition at 500 µM (Homo sapiens [1]) was 4.3%, the “Change in systolic BP” value (Rattus norvegicus [2]) was -28% and the “Change in systolic BP” value (Rattus norvegicus [3]) was -1%. The inhibition at 50 µM (Homo sapiens [4]) was 8%, the Ratio (Homo sapiens [5]) was 4.7 and the “Change in systolic BP” value (Rattus norvegicus [6]) was -1%. For the same molecule, the “Change in heart rate” value (Rattus norvegicus [7]) was 21%, the “Change in heart rate” value (Rattus norvegicus [8]) was -4% and the Ratio (Homo sapiens [9]) was 5.3. For the same molecule, the IC50 (Phosphodiesterase 3) was 6.4 µM, the “Change in systolic BP” value (Rattus norvegicus [10]) was -54% and the “Change in heart rate” value (Rattus norvegicus [11]) was -34%. The inhibition at 500 µM (Homo sapiens [12]) was 21.1%, the survival at 10 mg/kg (Mus musculus [13]) was 20% and the survival at 10 mg/kg (Mus musculus [14]) was 60%. The IC50 (Homo sapiens [15]) was 1.2 µM, the “Change in heart rate” value (Rattus norvegicus [16]) was 8% and the “Change in heart rate” value (Rattus norvegicus [17]) was -5%. For the same molecule, the “Change in systolic BP” value (Rattus norvegicus [18]) was -3%, the “Change in systolic BP” value (Rattus norvegicus [19]) was -21% and the “Change in systolic BP” value (Rattus norvegicus [20]) was -3%. For the same molecule, the “Change in heart rate” value (Rattus norvegicus [21]) was 29%, the survival at 10 mg/kg (Mus musculus [22]) was 90% and the survival at 10 mg/kg (Mus musculus [23]) was 50%. The survival at 9 mg/kg (Mus musculus [24]) was 50%, the “Change in heart rate” value (Rattus norvegicus [25]) was 7% and the “Change in heart rate” value (Rattus norvegicus [26]) was 22%.
